The results in this text go back to patent US10774053B2, “HIV protease inhibitors” (Gilead Sciences, Inc., priority 2017, dated 2020).

Where two headings read alike, the source gives them in different places.

The subject of the experiment is HIV-1 (IIIB) in MT-4 cells. In words: microbe, parasite or virus in culture. To be noted: Human immunodeficiency virus 1, IIIB. The format is cell-based.
The mark [1] stands for this setting: MT4, MT-4 cells, HIV-1, read-out: MT4 EC50.

A word on the EC50: it is the concentration at which the effect is half-maximal. Turning to `CC(C)(C)C[C@]1(c2ccc(-c3ccccn3)cc2)NC(=N)N([C@H](COC(=O)NC2(C(F)(F)F)CC2)c2ccc(Cl)c(-c3ncn[nH]3)c2)C1=O` [Compound 60], the 50% effective concentration (EC50) under setting [1] worked out at 28.5 nM. On the same count and under the same terms, then `CC(C)(C)C[C@]1(c2ccc(-c3cnn(C4COC4)c3)cc2)NC(=N)N([C@H](COC(=O)NC(C)(C)C)c2ccc(Cl)c(-c3ncn[nH]3)c2)C1=O` [Compound 106], with 101 nM; and `CC(C)(C)C[C@]1(c2ccc(-c3cnn(C(F)F)c3)cc2)NC(=N)N([C@H](COC(=O)N(CC(F)F)C2CC2)c2ccc(Cl)c(-n3cncn3)c2)C1=O` [Compound 376], with 12 nM. As for `CC(C)(C)C[C@]1(c2ccc(-c3cnccn3)cc2)NC(=N)N([C@H](COC(=O)NC2(C)CC2)c2ccc(Cl)c(-c3ncn[nH]3)c2)C1=O` [Compound 33], the half-maximal effective concentration (EC50) under setting [1] was found to be 37.2 nM. Still for that read-out and setting: under `CC1(NC(=O)OC[C@H](c2ccc(Cl)c(-n3cccn3)c2)N2C(=N)N[C@](CC(C)(C)C(F)(F)F)(c3ccc(-c4cnn(C(F)F)c4)cc3)C2=O)CC1` [Compound 323] stands 50.7 nM. On the same count and under the same terms, under `[H]/N=C1\N[C@](CC(C)(C)C)(c2ccc(-c3cnn(C(F)F)c3)cc2)C(=O)N1[C@H](COC(=O)NC1CC1)c1ccc(Cl)c(-c2nnc(C3CC3)s2)c1` [Compound 44] stands 246 nM; under `CC(C)(C)C[C@]1(c2ccc(-c3cnn(C(F)F)c3)cc2)NC(=N)N([C@H](COc2ccc(F)cc2F)c2ccc(Cl)c(-n3ncnc3C(F)F)c2)C1=O` [Compound 365], 143 nM; under `[H]/N=C1\N[C@](CC(C)(C)C)(c2ccc(-c3cnn(C(F)F)c3)cc2)C(=O)N1[C@H](COC(=O)NC1CC1)c1ccc(Cl)c(-c2ncns2)c1` [Compound 48], 80 nM.

With `CC(C)(C)C[C@]1(c2ccc(-c3ccc(C(F)F)nc3)cc2F)NC(=N)N([C@H](COC(=O)NC2(C(F)(F)F)CC2)c2ccc(Cl)c(-n3ncnc3C(F)F)c2)C1=O` [Compound 279], under setting [1], the 50% effective concentration (EC50) worked out at 23.5 nM. The same measure, in the same setting: under `CC(C)(C)C[C@]1(c2ccc(-c3cnn(C(F)F)c3)cc2)NC(=N)N([C@H](COC(=O)NC2(C)CC2)c2ccc(Cl)c(-n3cnnn3)c2)C1=O` [Compound 266] stands 57.4 nM. As for `[H]/N=C1\N[C@](CC(C)(C)C)(c2ccc(OC)cc2F)C(=O)N1[C@H](COC(=O)N(C)C)c1ccc(Cl)c(-c2ncccc2F)c1` [Compound 10], the concentration for a half-maximal effect (EC50) (MT4, read-out: MT4 EC50 (nM)) is 91.9 nM. For the compound `CC(C)(C[C@]1(c2ccc(-c3cnn(C4CC4)n3)cc2)NC(=N)N([C@H](COC(=O)NC2(C(F)(F)F)CC2)c2ccc(Cl)c(-c3ncnn3C(F)F)c2)C1=O)C1CC1` [Compound 149], under setting [1], the EC50 worked out at 11.9 nM. On the same count and under the same terms, under `CC(C)C(=O)NC[C@H](c1ccc(Cl)c(-n2ncnc2C(F)F)c1)N1C(=N)N[C@](CC(C)(C)C(F)(F)F)(c2ccc(-c3cnn(C4CC4)n3)cc2)C1=O` [Compound 388] stands 16.9 nM; under `CC1CCN1C(=O)OC[C@H](c1ccc(Cl)c(-c2ncn[nH]2)c1)N1C(=N)N[C@](CC(C)(C)C)(c2ccc(-c3cnn(C(F)F)c3)cc2)C1=O` (stereo partly shown) [Compound 88], 24.3 nM. Still for that read-out and setting: under `Cc1ncnn1-c1cc([C@@H](COC(=O)NC2(C)CC2)N2C(=N)N[C@](CC(C)(C)C)(c3ccc(-c4cnn(C(F)F)c4)cc3)C2=O)ccc1Cl` [Compound 247] stands 7.51 nM; under `CC(C)(C)C[C@]1(c2ccc(-c3ncccn3)cc2F)NC(=N)N([C@H](COC(=O)NC2(C(F)(F)F)CC2)c2ccc(Cl)c(-n3ncnc3C(F)F)c2)C1=O` [Compound 197], 11.2 nM; under `CC(C)(C[C@]1(c2ccc(-c3cnn(C(F)F)c3)cc2)NC(=N)N([C@H](COC(=O)NC2(C(F)(F)F)CC2)c2ccc(Cl)c(-n3ncnc3C(F)F)c2)C1=O)C1CC1` [Compound 231], 12.2 nM. As for `CC(C)(C)C[C@]1(c2ccc(-c3ccccn3)cc2)NC(=N)N([C@H](COC(=O)NC2(C(F)(F)F)CC2)c2ccc(Cl)c(-n3ncnc3C(F)F)c2)C1=O` [Compound 190], the EC50 under setting [1] was found to be 22.6 nM. On to `C[C@H](C(=O)NC[C@H](c1ccc(Cl)c(-n2ncnc2C(F)F)c1)N1C(=N)N[C@](CC(C)(C)C)(c2ccc(-c3cnn(C4CC4)n3)cc2)C1=O)C(F)(F)F` [Compound 385], for which, under setting [1], the concentration giving a half-maximal response (EC50) came to 12.8 nM. Same read-out and setting: under `CC(C)(C)C[C@]1(c2ccc(-c3cnn(C(F)F)c3)cc2F)NC(=N)N([C@H](COC(=O)N2CC(F)(F)C2)c2ccc(Cl)c(-c3ncn[nH]3)c2)C1=O` [Compound 111] stands 40.4 nM; under `CC(C)(C)C[C@]1(c2ccc(-c3cncs3)cc2)NC(=N)N([C@H](COC(=O)NC2(C(F)(F)F)CC2)c2ccc(Cl)c(-n3ncnc3C(F)F)c2)C1=O` [Compound 277], 6.99 nM. Same read-out and setting: then `CC(C)(C)C[C@]1(c2ccc(-c3cnn(C4CC4)c3)c(Cl)c2)NC(=N)N([C@H](COC(=O)NC2(C(F)(F)F)CC2)c2ccc(Cl)c(-n3ncnc3C(F)F)c2)C1=O` [Compound 316], with 13.3 nM. As for `CC(C)(C)C[C@]1(c2ccc(-c3cnn(C(F)F)c3)cc2)NC(=N)N([C@H](COC(=O)NC2(C(F)F)CC2)c2ccc(Cl)c(-c3ncn[nH]3)c2)C1=O` [Compound 93], the half-maximal effective concentration (EC50) under setting [1] was 105 nM. Same read-out and setting: under `[H]/N=C1\N[C@](CC(C)(C)C)(c2ccc(-c3cnn(C(F)F)c3)cc2F)C(=O)N1[C@H](COC(=O)NC1CC1)c1ccc(Cl)c(-c2ncccc2C)c1` [Compound 12] stands 22.2 nM; under `CC(C)(C)C[C@]1(c2ccc(-c3cnn(C(F)F)c3)cc2)NC(=N)N([C@H](COC(=O)NC2(C)CC2)c2ccc(Cl)c(-c3ncn[nH]3)c2)C1=O` [Compound 31], 51 nM. On the same count and under the same terms, then `CC(C)(C)C[C@]1(c2ccc(-c3cnn(C(F)F)c3)cc2)NC(=N)N([C@H](COC(=O)N2CC(C)(C)C2)c2ccc(Cl)c(-c3ncn[nH]3)c2)C1=O` [Compound 75], with 30.5 nM; and `[H]/N=C1\N[C@](CC(C)(C)C)(c2ccc(-c3cnn(C(F)F)c3)cc2)C(=O)N1[C@H](COC(=O)NC1CC1)c1ccc(Cl)c(-c2nncs2)c1` [Compound 39], with 29.8 nM; and `CC(C)(C)C[C@]1(c2ccc(-c3cnn(C(F)F)c3)cc2)NC(=N)N([C@H](COC(=O)NC2CC2)c2ccc(Cl)c(-c3cn(C(F)F)cn3)c2)C1=O` [Compound 36], with 89.3 nM.

With `CC(C)(C)C[C@]1(c2ccc(-n3nccn3)cc2)NC(=N)N([C@H](COC(=O)NC2(C(F)(F)F)CC2)c2ccc(Cl)c(-n3ncnc3C(F)F)c2)C1=O` [Compound 226], the EC50 under setting [1] turned out to be 10.6 nM.

Regarding `CC(C)(C)C[C@]1(c2ccc(-c3cnn(C(F)F)c3)c(F)c2)NC(=N)N([C@H](COC(=O)N[C@H]2CC2(F)F)c2ccc(Cl)c(-n3ncnc3C(F)F)c2)C1=O` [Compound 340], the concentration giving a half-maximal response (EC50) under setting [1] was 6.67 nM. As to `CC(C)(C)C[C@]1(c2ccc(-c3cnn(C(F)F)c3)cc2)NC(=N)N([C@H](COC(=O)NC2(C)CC2)c2ccc(Cl)c(-c3ncn(C(F)F)n3)c2)C1=O` [Compound 70], the EC50 under setting [1] worked out at 29.4 nM.

For `C[C@@H](C(=O)NC[C@H](c1ccc(Cl)c(-n2ncnc2C(F)F)c1)N1C(=N)N[C@](CC(C)(C)C(F)(F)F)(c2ccc(-c3cnn(C4CC4)n3)cc2)C1=O)C(F)(F)F` [Compound 390], under setting [1], the EC50 came out at 20.9 nM. The same measure, in the same setting: then `CC(C)(C)C[C@]1(c2ccc(-c3cnn(C4CC4)n3)cc2)NC(=N)N([C@H](CNC(=O)CC2CC2)c2ccc(Cl)c(-n3ncnc3C(F)F)c2)C1=O` [Compound 384], with 18 nM; and `CC(C)(C)C[C@]1(c2ccc(-c3ccc(C#N)cc3)cc2)NC(=N)N([C@H](COC(=O)NC2(C(F)(F)F)CC2)c2ccc(Cl)c(-n3ncnc3C(F)F)c2)C1=O` [Compound 281], with 22.2 nM.

For the compound `COc1ccc([C@@]2(CC(C)(C)C)NC(=N)N([C@H](COC(=O)N(C)C)c3ccc(Cl)c(-c4ncccc4C)c3)C2=O)c(F)c1` [Compound 1], the EC50 under setting [1] turned out to be 64.6 nM. Take `[2H]C([2H])([2H])n1cnc(-c2cc([C@@H](COC(=O)NC(C)(C)C(F)F)N3C(=N)N[C@](CC4(C)CC4)(c4ccc(-c5cnn(C(F)F)c5)cc4)C3=O)ccc2Cl)n1` [Compound 98]: the EC50 under setting [1] is 52 nM.

With `Cc1cc(-c2ccc([C@@]3(CC(C)(C)C)NC(=N)N([C@H](COC(=O)NC4(C(F)(F)F)CC4)c4ccc(Cl)c(-n5ncnc5C(F)F)c4)C3=O)cc2)on1` [Compound 216], under setting [1], the EC50 was found to be 9.74 nM. Still for that read-out and setting: under `CC(C)(C)C[C@]1(c2ccc(-c3cnn(C(F)F)c3)cc2)NC(=N)N([C@H](COC(=O)NC2(C(F)(F)F)CC2)c2ccc(Cl)c(-n3ncnc3C3CC3)c2)C1=O` [Compound 253] stands 28.1 nM; under `CC(C)(C)C[C@]1(c2ccc(-n3nccn3)c(F)c2)NC(=N)N([C@H](COC(=O)NC2(C(F)(F)F)CC2)c2ccc(Cl)c(-n3ncnc3C(F)F)c2)C1=O` [Compound 309], 13.4 nM; under `CC(C)(C)C[C@]1(c2ccc(-c3cnn(C(F)F)c3)cc2)NC(=N)N([C@H](COC(=O)N[C@@H]2C[C@H]2F)c2ccc(Cl)c(-n3ncnc3C(F)F)c2)C1=O` [Compound 337], 9.75 nM. The same measure, in the same setting: then `C[C@H](NC(=O)OC[C@H](c1ccc(Cl)c(-n2ncnc2C(F)F)c1)N1C(=N)N[C@](CC(C)(C)C)(c2ccc(-c3cnn(C4CC4)c3)c(F)c2)C1=O)C(F)(F)F` [Compound 314], with 8.19 nM; and `C[C@H](NC(=O)OC[C@H](c1ccc(Cl)c(-n2ncnc2C(F)F)c1)N1C(=N)N[C@](CC(C)(C)C)(c2ccc(-c3cn(C4CC4)nn3)cc2)C1=O)C(F)(F)F` [Compound 233], with 13.6 nM. On to `CC(C)(C)C[C@]1(c2ccc(-c3cnn(C4CC4)n3)cc2)NC(=N)N([C@H](CNC(=O)C2(C)CC2)c2ccc(Cl)c(-n3ncnc3C(F)F)c2)C1=O` [Compound 382], for which, under setting [1], the EC50 worked out at 36.5 nM. For `CC(C)(C)C[C@]1(c2ccc(C(F)(F)F)cc2)NC(=N)N([C@H](COC(=O)NC2(C(F)(F)F)CC2)c2ccc(Cl)c(-n3ncnc3C(F)F)c2)C1=O` [Compound 373], the half-maximal effective concentration (EC50) under setting [1] was found to be 49.7 nM. Still for that read-out and setting: under `CC(C)(C)C[C@]1(c2ccc(-c3cnn(C(F)F)c3)cc2)NC(=N)N([C@H](COC(=O)NC2(C)CC2)c2ccc(Cl)c(-n3ncnc3C3CC3)c2)C1=O` [Compound 252] stands 20.7 nM. On the same count and under the same terms, then `CC(C)(C)C[C@]1(c2ccc(-c3cnn(C(F)F)c3)cc2F)NC(=N)N([C@H](COC(=O)NC(C)(C)C)c2ccc(Cl)c(-c3ncn[nH]3)c2)C1=O` [Compound 114], with 40.6 nM.
